Measurements from patent US8653089B2, “Heterocyclic compounds and methods of use” (F. Hoffmann-La Roche AG, priority 2011, dated 2014).
pIC50: −log10 of the molar value.

System: production of CD69 by B lymphocytes in human whole blood activated by crosslinking surface IgM
Experiment: CD69 human whole blood assay (Example 903), FACS
Format: cell-based
Settings: Homo sapiens, Lymphocyte, B lymphocytes activated with goat F(ab')2 anti-human IgM, read-out: CD69 Hu Blood FACS IC50
Excerpt: There is good evidence that B-cells play a key role in the pathogenesis of autoimmune and/or inflammatory disease. Protein-based therapeutics that deplete B cells such as Rituxan are effective against autoantibody-driven inflammatory diseases such as rheumatoid arthritis (Rastetter et al. (2004) Annu Rev Med 55:477). CD69 is the early activation marker in leukocytes including T cells, thymocytes, B cells, NK cells, neutrophils, and eosinophils. The CD69 human whole blood assay (Example 903) determines the ability of compounds to inhibit the production of CD69 by B lymphocytes in human whole blood activated by crosslinking surface IgM with goat F(ab′)2 anti-human IgM.

Row | Compound | pIC50
1 | Cc1nc(N)nc(N[C@@H](C)c2nc3ccc(F)cc3n2-c2ccccc2)n1 [Example 258, N—[(S)-1-(6-Fluoro-1-phenyl-1H-benzoimidazol-2-yl)-ethyl]-6-methyl-[1,3,5]triazine-2,4-diamine] | 6.85
2 | C[C@H](Nc1ncnc2[nH]cnc12)c1nc2ccc(F)cc2n1-c1cncc(F)c1 [Example 260, {(S)-1-[6-Fluoro-1-(5-fluoro-pyridin-3-yl)-1H-benzoimidazol-2-yl]-ethyl}-(9H-purin-6-yl)-amine] | 7.59
3 | CC(Nc1ncnc2[nH]cnc12)c1nc2ccc(F)cc2n1-c1cncc(F)c1 (centres unmarked) [Example 263, {1-[6-Fluoro-1-(5-fluoro-pyridin-3-yl)-1H-benzoimidazol-2-yl]-ethyl}-(9H-purin-6-yl)-amine] | 7.60
4 | COC[C@H](Nc1ncnc2[nH]cnc12)c1nc2ccc(F)cc2n1-c1ccccn1 [Example 270, [(R)-1-(6-Fluoro-1-pyridin-2-yl-1H-benzoimidazol-2-yl)-2-methoxy-ethyl]-(9H-purin-6-yl)-amine] | 6.82
5 | COC[C@H](Nc1ncnc(N)c1C#N)c1nc2ccc(F)cc2n1-c1ccccn1 [Example 271, 4-Amino-6-[(R)-1-(6-fluoro-1-pyridin-2-yl-1H-benzoimidazol-2-yl)-2-methoxy-ethylamino]-pyrimidine-5-carbonitrile] | 7.41
6 | C[C@H](Nc1ncnc2[nH]cnc12)c1nc2ccc(F)c(C(=O)N3CCOCC3)c2n1-c1ccccc1 [Example 273, {5-Fluoro-3-phenyl-2-[(S)-1-(9H-purin-6-ylamino)-ethyl]-3H-benzoimidazol-4-yl}-morpholin-4-yl-methanone] | 7.57
7 | C[C@H](Nc1ncnc2[nH]cnc12)c1nc2ccc(F)c(C3CC3)c2n1-c1ccccn1 [Example 274, [(S)-1-(7-Cyclopropyl-6-fluoro-1-pyridin-2-yl-1H-benzoimidazol-2-yl)-ethyl]-(9H-purin-6-yl)-amine] | 7.57
8 | C[C@H](Nc1ncnc(N)c1C#N)c1nc2ccc(F)cc2n1-c1ccccn1 [Example 275, 4-Amino-6-[(S)-1-(6-fluoro-1-pyridin-2-yl-1H-benzoimidazol-2-yl)-ethylamino]-pyrimidine-5-carbonitrile] | 7.56
9 | C[C@H](Nc1ncnc(N)c1C#N)c1nc2ccc(F)cc2n1-c1cncc(F)c1 [Example 277, 4-Amino-6-{(S)-1-[6-fluoro-1-(5-fluoro-pyridin-3-yl)-1H-benzoimidazol-2-yl]-ethylamino}-pyrimidine-5-carbonitrile] | 7.74
10 | C[C@H](Nc1ncnc2[nH]cnc12)c1nc2ccc(F)cc2n1[C@H]1CCCN(CCO)C1 [Example 278, 2-((S)-3-{6-Fluoro-2-[(S)-1-(9H-purin-6-ylamino)-ethyl]-benzoimidazol-1-yl}-piperidin-1-yl)-ethanol] | 7.78
11 | C[C@H](Nc1ncnc2[nH]cnc12)c1nc2cccc(C#N)c2n1-c1ccccc1 [Example 279, 3-Phenyl-2-[(S)-1-(9H-purin-6-ylamino)-ethyl]-3H-benzoimidazole-4-carbonitrile] | 6.74
12 | OC[C@H](Nc1ncnc2[nH]cnc12)c1nc2ccc(F)cc2n1-c1ccccn1 [Example 280, (R)-2-(6-Fluoro-1-pyridin-2-yl-1H-benzoimidazol-2-yl)-2-(9H-purin-6-ylamino)-ethanol] | 6.86
13 | C[C@H](Nc1ncnc2[nH]cnc12)c1nc2ccc(F)c(C#N)c2n1-c1cccnc1 [Example 281, 5-Fluoro-2-[(S)-1-(9H-purin-6-ylamino)-ethyl]-3-pyridin-3-yl-3H-benzoimidazole-4-carbonitrile] | 6.96
14 | Cc1c(F)ccc2nc([C@H](C)Nc3ncnc(N)c3C#N)n(-c3ccccn3)c12 [Example 289, 4-Amino-6-[(S)-1-(6-fluoro-7-methyl-1-pyridin-2-yl-1H-benzoimidazol-2-yl)-ethylamino]-pyrimidine-5-carbonitrile] | 7.32
15 | C[C@H](Nc1ncnc(N)c1C#N)c1nc2ccc(F)c(C#N)c2n1-c1ccccn1 [Example 291, 2-[(S)-1-(6-Amino-5-cyano-pyrimidin-4-ylamino)-ethyl]-5-fluoro-3-pyridin-2-yl-3H-benzoimidazole-4-carbonitrile] | 7.01
16 | C[C@H](Nc1ncnc2[nH]cnc12)c1nc2ccc(F)c(C3CC3)c2n1-c1cccnc1 [Example 294, [(S)-1-(7-Cyclopropyl-6-fluoro-1-pyridin-3-yl-1H-benzoimidazol-2-yl)-ethyl]-(9H-purin-6-yl)-amine] | 8.39
17 | C[C@H](Nc1ncnc(N)c1C#N)c1nc2cccc(C3CC3)c2n1-c1cccnc1 [Example 299, 4-Amino-6-[(S)-1-(7-cyclopropyl-1-pyridin-3-yl-1H-benzoimidazol-2-yl)-ethylamino]-pyrimidine-5-carbonitrile] | 7.45
18 | C[C@H](Nc1ncnc(N)c1C#N)c1nc2ccc(F)c(Br)c2n1-c1cccnc1 [Example 301, 4-Amino-6-[(S)-1-(7-bromo-6-fluoro-1-pyridin-3-yl-1H-benzoimidazol-2-yl)-ethylamino]-pyrimidine-5-carbonitrile] | 7.47

Row | Compound | pIC50
19 | CC(Nc1ncnc(N)c1C#N)c1nc2cccnc2n1-c1ccccc1 (centres unmarked) [Example 302, 4-Amino-6-[1-(3-phenyl-3H-imidazo[4,5-b]pyridin-2-yl)-ethylamino]-pyrimidine-5-carbonitrile] | 6.72
20 | OCC[C@H](Nc1ncnc2[nH]cnc12)c1nc2ccc(F)cc2n1-c1ccccn1 [Example 304, (S)-3-(6-Fluoro-1-pyridin-2-yl-1H-benzoimidazol-2-yl)-3-(9H-purin-6-ylamino)-propan-1-ol] | 6.76
21 | C[C@H](Nc1ncnc(N)c1C#N)c1nc2ccc(F)c(C3CC3)c2n1-c1cccnc1 [Example 306, 4-Amino-6-[(S)-1-(7-cyclopropyl-6-fluoro-1-pyridin-3-yl-1H-benzoimidazol-2-yl)-ethylamino]-pyrimidine-5-carbonitrile] | 8.54
22 | C[C@H](Nc1ccncc1C#N)c1nc2ccc(F)cc2n1-c1ccccc1 [Example 312, 4-[(S)-1-(6-Fluoro-1-phenyl-1H-benzoimidazol-2-yl)-ethylamino]-nicotinonitrile] | 5.41
23 | C[C@H](Nc1ncncc1C#N)c1nc2ccc(F)cc2n1-c1ccccc1 [Example 316, 4-[(S)-1-(6-Fluoro-1-phenyl-1H-benzoimidazol-2-yl)-ethylamino]-pyrimidine-5-carbonitrile] | 6.32
24 | C[C@H](Nc1ncnc2[nH]cnc12)c1nc2ccc(F)cc2n1-c1ccc2c(c1)OCO2 [Example 320, [(S)-1-(l-Benzo[1,3]dioxol-5-yl-6-fluoro-1H-benzoimidazol-2-yl)-ethyl]-(9H-purin-6-yl)-amine] | 6.60
25 | C[C@H](Nc1ncnn2ccnc12)c1nc2ccc(F)cc2n1-c1ccccc1 [Example 321, [(S)-1-(6-Fluoro-1-phenyl-1H-benzoimidazol-2-yl)-ethyl]-imidazo[2,1-f][1,2,4]triazin-4-yl-amine] | 7.73
26 | C[C@H](Nc1ncnn2ccnc12)c1nc2ccc(F)cc2n1-c1ccccn1 [Example 322, [(S)-1-(6-Fluoro-1-pyridin-2-yl-1H-benzoimidazol-2-yl)-ethyl]-imidazo[2,1-f][1,2,4]triazin-4-yl-amine] | 6.84
27 | CC(Nc1ncnc2[nH]cnc12)c1nc2ccc(F)c(O)c2n1-c1ccccc1 (centres unmarked) [Example 327, 5-Fluoro-3-phenyl-2-[1-(9H-purin-6-ylamino)-ethyl]-3H-benzoimidazol-4-ol] | 6.71
28 | Cc1nc(N)nc(N[C@@H](C)c2nc3ccc(F)cc3n2-c2ccccc2)c1C#N [Example 328, 2-Amino-4-[(S)-1-(6-fluoro-1-phenyl-1H-benzoimidazol-2-yl)-ethylamino]-6-methyl-pyrimidine-5-carbonitrile] | 8.46
29 | C[C@H](Nc1ncnc(N)c1C#N)c1nc2ccc(F)c(C#N)c2n1-c1ccccc1 [Example 330, 2-[(S)-1-(6-Amino-5-cyano-pyrimidin-4-ylamino)-ethyl]-5-fluoro-3-phenyl-3H-benzoimidazole-4-carbonitrile] | 7.89
30 | C[C@H](Nc1ncnc2[nH]cnc12)c1nc2ccc(F)cc2n1-c1ccncn1 [Example 332, [(S)-1-(6-Fluoro-1-pyrimidin-4-yl-1H-benzoimidazol-2-yl)-ethyl]-(9H-purin-6-yl)-amine] | 7.09
31 | Cc1nc(N)nc(N[C@@H](C)c2nc3ccc(F)cc3n2-c2ccccn2)c1C#N [Example 333, 2-Amino-4-[(S)-1-(6-fluoro-1-pyridin-2-yl-1H-benzoimidazol-2-yl)-ethylamino]-6-methyl-pyrimidine-5-carbonitrile] | 8.31
32 | C[C@H](Nc1ncnc(N)c1C#N)c1nc2cccnc2n1-c1ccccc1 [Example 337, 4-Amino-6-[(S)-1-(3-phenyl-3H-imidazo[4,5-b]pyridin-2-yl)-cthylamino]-pyrimidine-5-carbonitrile] | 7.02
33 | COc1c(F)ccc2nc([C@H](C)Nc3ncnc(N)c3C#N)n(-c3ccccc3)c12 [Example 339, 4-Amino-6-[(S)-1-(6-fluoro-7-methoxy-1-phenyl-1H-benzoimidazol-2-yl)-ethylamino]-pyrimidine-5-carbonitrile] | 8.31
34 | Cc1nccc(N[C@@H](C)c2nc3ccc(F)cc3n2-c2ccccc2)c1C#N [Example 340, 4-[(S)-1-(6-Fluoro-1-phenyl-1H-benzoimidazol-2-yl)-ethylamino]-2-methyl-nicotinonitrile] | 6.22
35 | C[C@H](Nc1ncnc(N)c1C#N)c1nc2ccc(F)c(CC#N)c2n1-c1ccccc1 [Example 345, 4-Amino-6-[(S)-1-(7-cyanomethyl-6-fluoro-1-phenyl-1H-benzoimidazol-2-yl)-ethylamino]-pyrimidine-5-carbonitrile] | 8.54
